Reference: publication PMC3433414, “Oral Administration of the Pimelic Diphenylamide HDAC Inhibitor HDACi 4b Is Unsuitable for Chronic Inhibition of HDAC Activity in the CNS In Vivo” (PLoS ONE, 2012)

How the values were obtained:
[1] = target: T1, human recombinant HDAC1 (Homo sapiens, UniProt Q13547); assay: Two-step fluorogenic deacetylase assay, recombinant HDAC1; format: biochemical
T1 construct: purified recombinant human full length HDAC1 (cat# 50051); purchased BPS Bioscience (San Diego, CA) 50051
Excerpt: (§1) To assess the biochemical and cellular potency of 4b and its conversion products/metabolites, we utilized the two-step fluorogenic assay which measures the HDAC-mediated catalytic conversion of synthetic acetylated lysine substrates. In brief, on deacetylation of the substrates by HDAC activity, a protease site is unmasked which allows subsequent trypsin-mediated cleavage and release of the highly flourescent AMC molecules in a subsequent step of the assay. The substrates used were Lys_Ac_AMC (Bachem I-1875) for HDAC3 and (Ac)Arg-Gly-Lys(Ac) (Bachem I-1925) for HDAC1 and HDAC2. […] However, the relatively labile and sterically more demanding trifluoracetyl group is readily hydrolyzed by the catalytically less avid Class IIa enzymes, allowing measurement of Class IIa activity using the 2-step fluorogenic assay. […]
(§2) For evaluation of the class selectivity of the compounds, we assessed inhibition against purified recombinant human full length HDAC1 (cat# 50051), HDAC2 (cat# 50052), HDAC3-NcoR2 (cat# 50003) and HDAC8 (cat# 50008): as representative of Class I activity; catalytic domain HDAC4(αα 648–1057), HDAC5 (αα 657–1123; cat # 50005), HDAC7 (αα 518-end; cat # 50007) and HDAC9 (αα 604–1066; cat # 50009) activity: representing all Class IIa activity; and full length HDAC6 (cat#50006): representing Class IIb activity. […]

[2] = target: T2, HDAC7 (Homo sapiens, UniProt Q8WUI4); assay: Two-step fluorogenic deacetylase assay, recombinant HDAC7; format: biochemical; conditions: up to 50 µM
T2 construct: HDAC7 (αα 518-end; cat # 50007); purchased BPS Bioscience (San Diego, CA) 50007
Excerpt: as §1, §2

[3] = Partition into erythrocytes; format: in vitro ADME; conditions: mouse
[4] = system: M (non‐selective); assay: Cerep binding, antagonist radioligand; conditions: 10 μM
Excerpt: (§3) In addition to the HDAC profiling performed, we also queried 4b for any apparent potential off-target effects, which could complicate any finding of efficacy or adverse events in vivo due to ‘polypharmacy’. This was accomplished by screening against a ‘diversity panel’ of 72 binding and 29 enzyme assays, comprised of roughly equal numbers of selective central and peripheral therapeutically relevant targets (Cerep Diversity Profile). This panel included representative targets from diverse enzyme families, G protein coupled receptors, steroid nuclear receptors, voltage- and ligand-gated ion channels. While not totally inclusive, it is a useful tool for discovery compounds to assess their viability as proof of concept molecules to specifically query a particular target. 4b was initially screened at 10 µM in duplicate. The full set of results is provided as Table S1. […] This clean in vitro profile was considered acceptable to proceed to ADME and pharmacokinetic studies.

[5] = system: NMDA; assay: Cerep binding, antagonist radioligand; conditions: 10 μM
Excerpt: as §3

[6] = system: Na+ channel (site 2); assay: Cerep binding, antagonist radioligand; conditions: 10 μM
Excerpt: as §3

[7] = system: PCP; assay: Cerep binding, antagonist radioligand; conditions: 10 μM
Excerpt: as §3

[8] = target: T3, D1 (h) (Homo sapiens, UniProt P21728); assay: Cerep binding, antagonist radioligand; conditions: read-out: % inhibition of control specific binding
T3 construct: purchased Cerep (Diversity Profile)
Excerpt: as §3

[9] = system: KATP channel; assay: Cerep binding, antagonist radioligand; conditions: 10 μM
Excerpt: as §3

[10] = system: opioid (non‐selective); assay: Cerep binding, antagonist radioligand; conditions: 10 μM
Excerpt: as §3

T1 sequence (Q13547 whole entry): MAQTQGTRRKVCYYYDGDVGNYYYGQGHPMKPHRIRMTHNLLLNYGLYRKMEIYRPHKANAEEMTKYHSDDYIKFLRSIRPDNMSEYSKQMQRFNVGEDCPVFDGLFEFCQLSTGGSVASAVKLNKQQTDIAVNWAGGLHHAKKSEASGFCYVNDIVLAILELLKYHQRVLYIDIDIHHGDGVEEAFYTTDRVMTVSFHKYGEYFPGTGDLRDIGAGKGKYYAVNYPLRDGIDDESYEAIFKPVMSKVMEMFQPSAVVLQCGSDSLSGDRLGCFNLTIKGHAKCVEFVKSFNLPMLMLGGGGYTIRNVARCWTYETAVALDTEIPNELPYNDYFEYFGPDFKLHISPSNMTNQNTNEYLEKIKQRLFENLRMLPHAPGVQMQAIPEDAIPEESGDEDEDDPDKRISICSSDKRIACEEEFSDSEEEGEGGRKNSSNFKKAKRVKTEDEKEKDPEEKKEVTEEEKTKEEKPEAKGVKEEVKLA
T2 sequence (Q8WUI4 518-952 limits assumed): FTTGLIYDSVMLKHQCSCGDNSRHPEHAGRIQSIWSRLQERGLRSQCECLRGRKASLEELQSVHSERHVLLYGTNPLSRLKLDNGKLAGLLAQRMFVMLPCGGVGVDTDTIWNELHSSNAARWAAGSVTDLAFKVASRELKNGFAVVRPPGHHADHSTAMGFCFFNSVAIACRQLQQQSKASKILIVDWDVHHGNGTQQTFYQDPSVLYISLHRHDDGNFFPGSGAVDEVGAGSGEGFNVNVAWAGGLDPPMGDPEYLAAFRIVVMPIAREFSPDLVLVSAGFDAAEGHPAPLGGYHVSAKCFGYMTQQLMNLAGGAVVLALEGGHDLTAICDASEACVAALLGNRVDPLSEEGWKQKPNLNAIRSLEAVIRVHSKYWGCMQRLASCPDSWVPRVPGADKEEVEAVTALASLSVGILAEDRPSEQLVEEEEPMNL
T3 sequence (P21728 whole entry): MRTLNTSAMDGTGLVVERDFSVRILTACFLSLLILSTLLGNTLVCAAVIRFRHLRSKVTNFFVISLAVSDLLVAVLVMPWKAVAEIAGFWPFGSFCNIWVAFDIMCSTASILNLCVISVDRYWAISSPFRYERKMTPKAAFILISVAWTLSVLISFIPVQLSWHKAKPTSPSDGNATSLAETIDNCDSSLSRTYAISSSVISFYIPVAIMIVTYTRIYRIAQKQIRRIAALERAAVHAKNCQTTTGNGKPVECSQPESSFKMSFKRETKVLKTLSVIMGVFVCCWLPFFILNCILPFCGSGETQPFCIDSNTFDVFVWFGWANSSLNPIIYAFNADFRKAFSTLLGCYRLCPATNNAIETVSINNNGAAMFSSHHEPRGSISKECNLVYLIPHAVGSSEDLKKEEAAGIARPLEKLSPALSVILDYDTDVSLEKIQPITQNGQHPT

Row | Structure (SMILES) | IC50 [1] [µM] | activity against HDAC7 [2] | concentrations in whole blood relative to plasma [3] | blood plasma ratio ([3]; whole blood, data not shown) | % inhibition of control specific binding [4] [%] | % inhibition of control specific binding [5] [%] | % inhibition of control specific binding [6] [%] | % inhibition of control specific binding [7] [%] | inhibition at 10 µM [8] [%] | % inhibition of control specific binding [9] [%] | % inhibition of control specific binding [10] [%]
1 | Nc1ccccc1NC(=O)CCCCCC(=O)Nc1ccccc1 [Compound 4b] | 1.51 | No activity | approximately 4 times | ~3 | 13 | 1 | 7 | 15 |  |  | 
2 | O=C(CCCCCc1nc2ccccc2[nH]1)Nc1ccccc1 [Compound C1, 6-(1-H-benzo[d]imidazol-2-yl)-N-phenylhexanamide] |  |  |  |  |  |  |  |  | 27 | 5 | 40
